Test results: patent publication US20110190313A1, “Treatment of Pulmonary Arterial Hypertension” (priority 2008, published 2011)
Read-outs that look alike come from different tables or passages of the source.

Key:
[1] = system: patients with severe pulmonary arterial hypertension
[2] = system: patients with severe pulmonary arterial hypertension; assay: Example 2 trial: 6-minute walk test (6MWD); type: in vivo, human; conditions: for 6MWD change vs. baseline, mean (SD): study end, patients with both baseline and end of study assessment
Source text: Secondary objectives included changes in hemodynamic variables, and in FC.
(§1) Patients (≧18 years) in FC II-IV with idiopathic or familial PAH, or PAH associated with systemic sclerosis or congenital heart disease (WHO group I) and PVR>300 dynes·sec·cm^−5 were eligible. Patients were on stable PAH medication(s) for >3 months before enrolment. Females of child-bearing potential used double-barrier contraception.
(§2) The primary efficacy outcome was the between-group difference in the 6MW distance (6MWD) at baseline and at 6 months. Complete hemodynamic parameters were assessed with standard techniques. FC was classified according to the WHO modification of the NYHA criteria for pulmonary hypertension.
(§3) Analyses were conducted within the intention-to-treat (ITT) population, which consisted of all patients who received at least one dose of study medication. Dropouts were excluded from the analysis The primary efficacy analysis (6MWD) was performed using analysis of covariance (ANCOVA) with baseline value as a covariate. ANCOVAs were also used to assess between-group differences in pulmonary hemodynamics and blood gases. Missing data were not imputed so only subjects with assessment both at baseline and post-treatment were included in the ANCOVA analysis. FC was compared using Fisher's test.

[3] = system: patients with severe pulmonary arterial hypertension; assay: Example 2 trial: blood gases (oxygen saturation); type: in vivo, human
Experimental: as §3

[4] = system: patients with severe pulmonary arterial hypertension; assay: Example 2 trial: pulmonary hemodynamics; type: in vivo, human
Experimental: as §1, §2, §3

[5] = end of study, with imatinib treatment

In the case of `Cc1ccc(NC(=O)c2ccc(CN3CCN(C)CC3)cc2)cc1Nc1nccc(-c2cccnc2)n1` [imatinib], the “Haemoglobin level (±SD)” value ([1]; after the fall with imatinib) is reported as 128 ± 16 g/L, the “Haemoglobin level (±SD)” value ([1]; before the fall (start value)) is reported as 151 ± 14 g/L and the Deaths in group ([1]; during 6 month study) is reported as “three”. The “AE headache, number of patients” value ([1]; imatinib group) was 10, the “AE headache, percent of patients” value ([1]; imatinib group) was 35.7% and the “AE nausea, percent of patients” value ([1]; imatinib group) was 50%. The “AE peripheral edema, number of patients” value ([1]; imatinib group) was 7, the “AE peripheral edema, percent of patients” value ([1]; imatinib group) was 25.0% and the “Patients reporting AEs of mild intensity, number” value ([1]; imatinib group) was 21. For the same compound, the “Patients reporting AEs of mild intensity, percent” value ([1]; imatinib group) was 75%, the “Patients reporting AEs of moderate intensity, number” value ([1]; imatinib group) was 20 and the “Patients reporting AEs of moderate intensity, percent” value ([1]; imatinib group) was 71%. For the same compound, the “Patients reporting AEs of severe intensity, number” value ([1]; imatinib group) was 9, the “Patients reporting AEs of severe intensity, percent” value ([1]; imatinib group) was 32% and the “Patients with rupture of the pulmonary artery (fatal)” value ([1]; imatinib group) was “One”. The “Serious AEs (SAEs), number of recipients” value ([1]; imatinib group) was 11, the “Serious AEs (SAEs), percent of recipients” value ([1]; imatinib group) was 39% and the “AE nausea, number of patients” value ([1]; imatinib group N = 28) was 14. For the same compound, the “Safety and tolerability in patients with PAH” value ([1]; over 6 months, result in words) was “safe and well tolerated”, the “Changes over time in other laboratory variables (white blood cell count, platelet count, albumin, liver enzymes, creatinine, electrolytes etc.)” value ([1]; result in words) was “no relevant changes” and the “6MWD treatment difference imatinib vs. placebo” value ([2]; ANCOVA of ITT population, p=0.21) was 21.7 m. The “6MWD change vs. baseline, mean (SD)” value [2] was “+22±63 m”, the “6MWD change vs. baseline, mean (SD)” value ([2]; listed as Imatinib) was 22 (63) m and the “Systemic arterial oxygen saturation, mean treatment difference vs. placebo” value ([3]; 95% CI 0.5, 4.3) was 2.4%. The “Mixed venous oxygen saturation, mean treatment difference vs. placebo” value ([3]; 95% CI 2.1, 11.9) was 7.0%, the “Mixed venous oxygen saturation” value ([3]; baseline) was 58±10% and the “Systemic arterial oxygen saturation” value ([3]; baseline) was 88±9%. For the same compound, the “Mixed venous oxygen saturation” value [3, 5] was 65±7%, the “Systemic arterial oxygen saturation” value [3, 5] was 93±5% and the “PAPm, imatinib vs. placebo” value ([4]; 6 months, result in words) was “no significant difference”. The “Cardiac output (CO) mean treatment difference vs. placebo” value ([4]; 6 months, 95% CI 0.10, 1.26, p=0.02) was 0.68 L/min, the “PVR mean treatment difference vs. placebo” value ([4]; 6 months, 95% CI −383.7, −77.8, p=0.004) was −230.7 dynes and the “Change between baseline and study end for PAPm, CO, PVR or 6MWD” value ([4]; post-hoc subgroup, baseline PVR<1,000 dynes·sec·cm^−5) was “no major differences”. The “Change between baseline and study end for PAPm, CO, PVR and 6MWD compared with placebo” value ([4]; post-hoc subgroup, baseline PVR≧1,000 dynes·sec·cm^−5) was “substantial improvement”.
